{"source": "patent US20250381168A1", "about": "“VLA4 INHIBITORS AND USES THEREOF” (Washington University, priority 2022, published 2025)", "key": {"integrin a4b7": {"molecular_target": "integrin a4b7 (Homo sapiens (Human), UniProt P13612+P26010)", "sequence (P13612 34-970)": "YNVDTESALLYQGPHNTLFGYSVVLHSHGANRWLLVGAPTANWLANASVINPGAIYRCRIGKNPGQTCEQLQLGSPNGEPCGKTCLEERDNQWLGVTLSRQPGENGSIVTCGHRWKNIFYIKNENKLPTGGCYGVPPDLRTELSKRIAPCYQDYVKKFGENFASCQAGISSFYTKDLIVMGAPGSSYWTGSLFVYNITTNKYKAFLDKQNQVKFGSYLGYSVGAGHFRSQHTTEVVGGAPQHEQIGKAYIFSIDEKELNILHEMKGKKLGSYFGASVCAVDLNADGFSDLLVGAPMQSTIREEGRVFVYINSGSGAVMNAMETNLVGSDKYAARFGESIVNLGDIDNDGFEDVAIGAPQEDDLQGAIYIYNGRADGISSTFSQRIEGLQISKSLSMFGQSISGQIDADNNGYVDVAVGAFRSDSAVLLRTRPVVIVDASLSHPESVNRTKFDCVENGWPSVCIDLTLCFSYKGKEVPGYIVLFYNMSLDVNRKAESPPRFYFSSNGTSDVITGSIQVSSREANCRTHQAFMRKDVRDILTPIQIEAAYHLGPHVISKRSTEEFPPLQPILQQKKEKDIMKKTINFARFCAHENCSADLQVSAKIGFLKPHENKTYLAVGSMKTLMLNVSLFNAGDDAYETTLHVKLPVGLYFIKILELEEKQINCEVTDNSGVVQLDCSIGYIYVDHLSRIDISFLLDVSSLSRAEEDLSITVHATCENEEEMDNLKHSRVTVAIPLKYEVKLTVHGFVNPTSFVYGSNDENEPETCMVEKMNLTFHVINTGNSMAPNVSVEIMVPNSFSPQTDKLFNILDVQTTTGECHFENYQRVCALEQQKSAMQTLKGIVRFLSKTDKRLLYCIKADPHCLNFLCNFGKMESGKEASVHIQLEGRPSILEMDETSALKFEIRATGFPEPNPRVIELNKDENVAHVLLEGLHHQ", "sequence (P26010 20-723)": "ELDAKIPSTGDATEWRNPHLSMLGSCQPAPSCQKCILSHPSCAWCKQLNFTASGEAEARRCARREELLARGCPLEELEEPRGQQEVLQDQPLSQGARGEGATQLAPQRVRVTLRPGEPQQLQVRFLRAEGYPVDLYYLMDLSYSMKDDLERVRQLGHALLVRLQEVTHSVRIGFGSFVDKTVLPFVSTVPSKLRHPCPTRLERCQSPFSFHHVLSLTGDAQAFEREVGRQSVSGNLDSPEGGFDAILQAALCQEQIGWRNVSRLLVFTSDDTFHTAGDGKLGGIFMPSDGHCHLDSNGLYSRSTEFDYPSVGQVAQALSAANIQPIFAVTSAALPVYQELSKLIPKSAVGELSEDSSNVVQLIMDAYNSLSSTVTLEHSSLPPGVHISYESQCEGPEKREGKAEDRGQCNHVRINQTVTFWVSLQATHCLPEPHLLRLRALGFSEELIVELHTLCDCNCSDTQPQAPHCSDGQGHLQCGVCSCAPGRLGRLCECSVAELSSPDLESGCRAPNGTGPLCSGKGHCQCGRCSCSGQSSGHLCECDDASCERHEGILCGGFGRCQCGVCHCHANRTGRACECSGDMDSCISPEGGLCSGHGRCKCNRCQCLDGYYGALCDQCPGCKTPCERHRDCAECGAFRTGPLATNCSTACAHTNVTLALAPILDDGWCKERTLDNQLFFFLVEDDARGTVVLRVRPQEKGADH", "experiment": "a4b7 solid phase receptor assay (SPRA)", "details": "recombinant human a4b7 binding to plate-coated human VCAM1 (TABLE 4)"}, "VLA-4 (a4b1)": {"molecular_target": "VLA-4 (a4b1) (Homo sapiens (Human), UniProt P05556+P13612)", "sequence (P13612 34-1032)": "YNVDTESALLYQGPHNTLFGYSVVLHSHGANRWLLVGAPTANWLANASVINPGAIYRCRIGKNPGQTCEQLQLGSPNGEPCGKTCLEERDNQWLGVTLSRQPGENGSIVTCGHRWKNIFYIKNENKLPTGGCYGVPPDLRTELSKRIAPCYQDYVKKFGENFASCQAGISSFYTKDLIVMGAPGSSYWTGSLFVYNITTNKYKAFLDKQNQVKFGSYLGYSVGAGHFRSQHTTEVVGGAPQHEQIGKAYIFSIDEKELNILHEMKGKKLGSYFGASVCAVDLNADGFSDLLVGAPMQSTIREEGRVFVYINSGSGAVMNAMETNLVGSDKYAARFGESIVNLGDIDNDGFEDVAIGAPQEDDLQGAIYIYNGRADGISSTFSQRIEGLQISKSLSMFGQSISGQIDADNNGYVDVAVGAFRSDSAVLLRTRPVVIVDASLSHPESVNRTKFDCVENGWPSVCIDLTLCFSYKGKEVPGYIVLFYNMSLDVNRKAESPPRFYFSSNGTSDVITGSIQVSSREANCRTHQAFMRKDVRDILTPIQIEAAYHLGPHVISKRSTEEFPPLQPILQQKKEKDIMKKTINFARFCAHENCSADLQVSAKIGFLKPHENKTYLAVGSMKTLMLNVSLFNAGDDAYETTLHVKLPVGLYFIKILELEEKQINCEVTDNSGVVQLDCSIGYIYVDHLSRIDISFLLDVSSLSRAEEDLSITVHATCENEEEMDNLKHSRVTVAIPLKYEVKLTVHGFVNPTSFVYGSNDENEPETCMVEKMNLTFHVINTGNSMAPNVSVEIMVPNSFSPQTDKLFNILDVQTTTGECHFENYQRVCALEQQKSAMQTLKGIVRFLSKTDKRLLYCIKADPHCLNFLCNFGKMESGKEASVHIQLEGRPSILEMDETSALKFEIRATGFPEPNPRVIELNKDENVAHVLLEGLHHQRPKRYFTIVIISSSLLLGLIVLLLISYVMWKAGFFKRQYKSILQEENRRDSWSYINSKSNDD", "sequence (P05556 21-798)": "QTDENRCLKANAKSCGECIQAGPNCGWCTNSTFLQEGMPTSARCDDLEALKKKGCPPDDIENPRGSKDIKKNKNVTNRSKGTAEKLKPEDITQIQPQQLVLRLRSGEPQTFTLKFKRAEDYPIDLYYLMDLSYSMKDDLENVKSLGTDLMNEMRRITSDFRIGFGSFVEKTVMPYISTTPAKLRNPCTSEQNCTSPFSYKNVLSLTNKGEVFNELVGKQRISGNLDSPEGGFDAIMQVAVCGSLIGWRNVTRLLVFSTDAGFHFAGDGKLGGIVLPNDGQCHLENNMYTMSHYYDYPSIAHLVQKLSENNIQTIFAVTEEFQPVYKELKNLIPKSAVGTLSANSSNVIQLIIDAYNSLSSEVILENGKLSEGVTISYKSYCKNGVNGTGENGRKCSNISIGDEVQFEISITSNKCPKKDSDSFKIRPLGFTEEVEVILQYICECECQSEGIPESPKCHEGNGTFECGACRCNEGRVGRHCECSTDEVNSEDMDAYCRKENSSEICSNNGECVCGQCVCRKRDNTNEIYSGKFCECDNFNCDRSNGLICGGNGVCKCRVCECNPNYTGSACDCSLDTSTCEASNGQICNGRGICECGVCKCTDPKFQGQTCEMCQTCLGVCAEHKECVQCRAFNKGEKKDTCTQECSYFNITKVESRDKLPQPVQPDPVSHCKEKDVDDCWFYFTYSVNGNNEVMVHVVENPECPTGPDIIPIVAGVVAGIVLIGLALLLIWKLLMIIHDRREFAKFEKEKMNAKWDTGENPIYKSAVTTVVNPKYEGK", "experiment": "sVCAM flow cytometry cell-based assay (inhibition of soluble VCAM-1 binding to G2 ALL cells);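 further: compounds at 0.1 to 1000 nM preincubated 30 min with G2 ALL cells, then VCAM/Fc added for 30 min, bound VCAM-1 detected by PE secondary antibody, percent binding cells by flow cytometry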"}, "[1]": {"system": "hematopoietic stem/progenitor cells (HSPCs)", "experiment": "HSPC mobilization into peripheral blood, colony forming unit (CFU) assay", "details": "mice"}, "[2]": {"details": "as listed in TABLE 9, read-out: sVCAM IC50"}, "[3]": {"details": "as listed in TABLE 10, read-out: sVCAM IC50"}, "[4]": {"details": "inhibition of sVCAM-1 binding to human G2 ALL cells (TABLE 3), read-out: SVCAM-1, IC50"}, "[5]": {"details": "single dose, peripheral blood, 2 hr post dose (TABLE 9)"}, "[6]": {"details": "single dose, peripheral blood, 2 hr post dose (TABLE 10)"}, "[7]": {"details": "single dose, peripheral blood, 4 hr post dose (TABLE 9)"}, "[8]": {"details": "single dose, peripheral blood, 4 hr post dose (TABLE 10)"}, "[9]": {"details": "single dose, peripheral blood, 6 hr post dose (TABLE 9)"}, "[10]": {"details": "single dose, peripheral blood, 6 hr post dose (TABLE 10)"}}, "note": "Read-outs that look alike come from different tables or passages of the source.", "data": [{"smiles": "COCCOCCOCCOCCOCCOCCOCCOCCOCCOCCOCCOCCOCCOCCOCCOCCOCCOCCOCCOCCOCCOCCOCCOCCOCc1cc(OC)c(-c2ccc(C[C@H](NC(=O)[C@@H]3CCCN3S(=O)(=O)c3cc(Cl)cc(Cl)c3)C(=O)O)cc2)c(OC)c1", "note": "[Example 1]", "values": [{"measurement": "IC50", "setting": "integrin a4b7", "result": 5.6, "unit": "nM"}, {"measurement": "IC50", "setting": "VLA-4 (a4b1); as listed in TABLE 7, read-out: sVCAM IC50", "result": 0.373, "unit": "nM"}, {"measurement": "IC50", "setting": "VLA-4 (a4b1); as listed in TABLE 8, read-out: sVCAM IC50", "result": 0.373, "unit": "nM"}, {"measurement": "IC50", "setting": "VLA-4 (a4b1); [2]", "result": 0.373, "unit": "nM"}, {"measurement": "IC50", "setting": "VLA-4 (a4b1); [3]", "result": 0.373, "unit": "nM"}, {"measurement": "IC50", "setting": "VLA-4 (a4b1); as listed in TABLE 11, read-out: sVCAM IC50", "result": 0.373, "unit": "nM"}, {"measurement": "IC50", "setting": "VLA-4 (a4b1); as listed in TABLE 12, read-out: sVCAM IC50", "result": 0.373, "unit": "nM"}, {"measurement": "IC50", "setting": "VLA-4 (a4b1); as listed in TABLE 14, read-out: sVCAM IC50", "result": 0.373, "unit": "nM"}, {"measurement": "IC50", "setting": "VLA-4 (a4b1); as listed in TABLE 15, read-out: sVCAM IC50", "result": 0.373, "unit": "nM"}, {"measurement": "IC50", "setting": "VLA-4 (a4b1); as listed in TABLE 17, read-out: sVCAM IC50", "result": 0.373, "unit": "nM"}, {"measurement": "IC50", "setting": "VLA-4 (a4b1); as listed in TABLE 18, read-out: sVCAM IC50", "result": 0.373, "unit": "nM"}, {"measurement": "IC50", "setting": "VLA-4 (a4b1); [4]", "result": 0.373, "unit": "nM"}, {"measurement": "HSPC mobilization in the triple combination regimen with plerixafor and truncated Groβ", "setting": "[1]", "result": "high degree of extended mobilization"}, {"measurement": "No. CFU (×10^3)/mL ± SD, 2 hr", "setting": "[1]; alone or in combination with Plerixafor and tGroβ, peripheral blood, 2 hr (TABLE 17)", "result": "5.69 ± 2.57 (×10^3)/mL"}, {"measurement": "No. CFU (×10^3)/mL ± SD, 4 hr", "setting": "[1]; alone or in combination with Plerixafor and tGroβ, peripheral blood, 4 hr (TABLE 17)", "result": "4.82 ± 1.07 (×10^3)/mL"}, {"measurement": "No. CFU (×10^3)/mL ± SD, 6 hr", "setting": "[1]; alone or in combination with Plerixafor and tGroβ, peripheral blood, 6 hr (TABLE 17)", "result": "2.97 ± 0.65 (×10^3)/mL"}, {"measurement": "HSPC mobilization, result in words", "setting": "[1]; single dose", "result": "significant HSPC mobilization at 4 hours"}, {"measurement": "No. CFU (×10^3)/mL ± SD, 2 hr", "setting": "[1]; single dose alone or in combination with AMD3100 (5 mg/kg s.c.), peripheral blood, 2 hr (TABLE 14)", "result": "5.94 ± 4.52 (×10^3)/mL"}, {"measurement": "No. CFU (×10^3)/mL ± SD, 3 hr", "setting": "[1]; single dose alone or in combination with AMD3100 (5 mg/kg s.c.), peripheral blood, 3 hr (TABLE 14)", "result": "6.42 ± 4.64 (×10^3)/mL"}, {"measurement": "No. CFU (×10^3)/mL ± SD, 5 hr", "setting": "[1]; single dose alone or in combination with AMD3100 (5 mg/kg s.c.), peripheral blood, 5 hr (TABLE 14)", "result": "5.02 ± 1.67 (×10^3)/mL"}, {"measurement": "No. CFU (x10^3)/mL ± SD, 4 hr", "setting": "[1]; single dose alone or in combination with Plerixafor (5 mg/kg s.c.), peripheral blood, 4 hr (TABLE 15)", "result": "2.65 ± 1.15 (x10^3)/mL"}, {"measurement": "No. CFU (x10^3)/mL ± SD, 6 hr", "setting": "[1]; single dose alone or in combination with Plerixafor (5 mg/kg s.c.), peripheral blood, 6 hr (TABLE 15)", "result": "1.43 ± 0.56 (x10^3)/mL"}, {"measurement": "No. CFU (x10^3)/mL ± SD, 24 hr", "setting": "[1]; single dose alone or in combination with Plerixafor (5 mg/kg s.c.), peripheral blood, 24 hr (TABLE 15)", "result": "0.22 ± 0.10 (x10^3)/mL"}, {"measurement": "effect on extended HSPC mobilization in combination with a single dose of the CXCR4 inhibitor AMD3100 (Plerixafor)", "setting": "[1]; single dose of each agent", "result": "synergistic effects"}, {"measurement": "No. CFU (×10^3)/mL ± SD, 0.25 hr", "setting": "[1]; single dose, peripheral blood, 0.25 hr post dose (TABLE 8)", "result": "4.10 ± 1.53 (×10^3)/mL"}, {"measurement": "No. CFU (×10^3)/mL ± SD, 0.5 hr", "setting": "[1]; single dose, peripheral blood, 0.5 hr post dose (TABLE 7)", "result": "1.22 ± 0.35 (×10^3)/mL"}, {"measurement": "No. CFU (×10^3)/mL ± SD, 2 hr", "setting": "[1]; single dose, peripheral blood, 2 hr post dose (TABLE 7)", "result": "2.12 ± 1.04 (×10^3)/mL"}, {"measurement": "No. CFU (×10^3)/mL ± SD, 2 hr", "setting": "[1]; single dose, peripheral blood, 2 hr post dose (TABLE 8)", "result": "4.79 ± 2.05 (×10^3)/mL"}, {"measurement": "No. CFU (×10^3)/mL ± SD, 2 hr", "setting": "[1]; [5]", "result": "4.72 ± 1.19 (×10^3)/mL"}, {"measurement": "No. CFU (×10^3)/mL ± SD, 2 hr", "setting": "[1]; [6]", "result": "4.18 ± 1.99 (×10^3)/mL"}, {"measurement": "No. CFU (x10^3)/mL ± SD, 2 hr", "setting": "[1]; single dose, peripheral blood, 2 hr post dose (TABLE 11)", "result": "3.14 ± 0.63 (x10^3)/mL"}, {"measurement": "No. CFU (×10^3)/mL ± SD, 4 hr", "setting": "[1]; single dose, peripheral blood, 4 hr post dose (TABLE 7)", "result": "2.30 ± 0.25 (×10^3)/mL"}, {"measurement": "No. CFU (×10^3)/mL ± SD, 4 hr", "setting": "[1]; single dose, peripheral blood, 4 hr post dose (TABLE 8)", "result": "4.43 ± 0.66 (×10^3)/mL"}, {"measurement": "No. CFU (×10^3)/mL ± SD, 4 hr", "setting": "[1]; [7]", "result": "5.00 ± 1.26 (×10^3)/mL"}, {"measurement": "No. CFU (×10^3)/mL ± SD, 4 hr", "setting": "[1]; [8]", "result": "4.41 ± 0.89 (×10^3)/mL"}, {"measurement": "No. CFU (x10^3)/mL ± SD, 4 hr", "setting": "[1]; single dose, peripheral blood, 4 hr post dose (TABLE 11)", "result": "4.14 ± 1.31 (x10^3)/mL"}, {"measurement": "No. CFU (×10^3)/mL ± SD, 4 hr", "setting": "[1]; single dose, peripheral blood, 4 hr post dose (TABLE 18)", "result": "5.18 ± 1.99 (×10^3)/mL"}, {"measurement": "No. CFU (×10^3)/mL ± SD, 6 hr", "setting": "[1]; [9]", "result": "1.84 ± 0.63 (×10^3)/mL"}, {"measurement": "No. CFU (×10^3)/mL ± SD, 6 hr", "setting": "[1]; [10]", "result": "1.78 ± 0.38 (×10^3)/mL"}, {"measurement": "No. CFU (x10^3)/mL ± SD, 6 hr", "setting": "[1]; single dose, peripheral blood, 6 hr post dose (TABLE 11)", "result": "2.20 ± 0.63 (x10^3)/mL"}, {"measurement": "No. CFU (×10^3)/mL ± SD, 8 hr", "setting": "[1]; single dose, peripheral blood, 8 hr post dose (TABLE 18)", "result": "2.00 ± 0.66 (×10^3)/mL"}, {"measurement": "No. CFU (x10^3)/mL ± SD, 24 hr", "setting": "[1]; single dose, peripheral blood, 24 hr post dose (TABLE 11)", "result": "0.29 ± 0.11 (x10^3)/mL"}, {"measurement": "No. CFU (×10^3)/mL ± SD, 24 hr", "setting": "[1]; single dose, peripheral blood, 24 hr post dose (TABLE 18)", "result": "0.46 ± 0.30 (×10^3)/mL"}, {"measurement": "No. CFU (x10^3)/mL ± SD, 2 hr", "setting": "[1]; single injection, peripheral blood, 2 hr post dose (TABLE 12)", "result": "4.72 ± 0.33 (x10^3)/mL"}, {"measurement": "No. CFU (x10^3)/mL ± SD, 4 hr", "setting": "[1]; single injection, peripheral blood, 4 hr post dose (TABLE 12)", "result": "3.38 ± 0.21 (x10^3)/mL"}, {"measurement": "No. CFU (x10^3)/mL ± SD, 6 hr", "setting": "[1]; single injection, peripheral blood, 6 hr post dose (TABLE 12)", "result": "2.87 ± 0.39 (x10^3)/mL"}, {"measurement": "No. CFU (x10^3)/mL ± SD, 8 hr", "setting": "[1]; single injection, peripheral blood, 8 hr post dose (TABLE 12)", "result": "1.12 ± 0.48 (x10^3)/mL"}]}, {"smiles": "COCCOCCOCCOCCOCCOCCOCCOCCOCCOCCOCCOCCOCCOCCOCCOCCOCCOCCOCCOCCOCCOCCOCCOCCOCCOCCOCCOCCOCCOCCOCCOCCOCCOCCOCCOCCOCc1cc(OC)c(-c2ccc(C[C@H](NC(=O)[C@@H]3CCCN3S(=O)(=O)c3cc(Cl)cc(Cl)c3)C(=O)O)cc2)c(OC)c1", "note": "[Example 2]", "values": [{"measurement": "IC50", "setting": "integrin a4b7", "result": 5.4, "unit": "nM"}, {"measurement": "IC50", "setting": "VLA-4 (a4b1); [2]", "result": 0.833, "unit": "nM"}, {"measurement": "IC50", "setting": "VLA-4 (a4b1); [3]", "result": 0.833, "unit": "nM"}, {"measurement": "IC50", "setting": "VLA-4 (a4b1); [4]", "result": 0.833, "unit": "nM"}, {"measurement": "No. CFU (×10^3)/mL ± SD, 2 hr", "setting": "[1]; [5]", "result": "4.10 ± 1.40 (×10^3)/mL"}, {"measurement": "No. CFU (×10^3)/mL ± SD, 2 hr", "setting": "[1]; [6]", "result": "4.42 ± 1.41 (×10^3)/mL"}, {"measurement": "No. CFU (×10^3)/mL ± SD, 4 hr", "setting": "[1]; [7]", "result": "4.98 ± 1.88 (×10^3)/mL"}, {"measurement": "No. CFU (×10^3)/mL ± SD, 4 hr", "setting": "[1]; [8]", "result": "3.59 ± 0.93 (×10^3)/mL"}, {"measurement": "No. CFU (×10^3)/mL ± SD, 6 hr", "setting": "[1]; [9]", "result": "1.87 ± 0.58 (×10^3)/mL"}, {"measurement": "No. CFU (×10^3)/mL ± SD, 6 hr", "setting": "[1]; [10]", "result": "2.12 ± 0.84 (×10^3)/mL"}]}]}
